In ChEMBL document CHEMBL4002566, “S-substituted 3,5-dinitrophenyl 1,3,4-oxadiazole-2-thiols and tetrazole-5-thiols as highly efficient antitubercular agents” (Eur J Med Chem, 2017):
In brackets after ≈: the same amount, converted by molar mass.

Experiments:
Type in all cases: functional
Mycobacterium avium [1] = test: Antimycobacterial activity against Mycobacterium avium CNCTC My 330/88 after 21 days by micromethod; conditions: CNCTC My 330/88, 504 h
[2] = test system: Mycobacterium tuberculosis; test: Antimycobacterial activity against Mycobacterium tuberculosis CNCTC My 331/88 after 14 days by micromethod; conditions: CNCTC My 331/88, 336 h
Mycobacterium avium [3] = test: Antimycobacterial activity against Mycobacterium avium CNCTC My 330/88 after 14 days by micromethod; conditions: CNCTC My 330/88, 336 h
Mycobacterium kansasii [4] = test: Antimycobacterial activity against Mycobacterium kansasii CNCTC My 235/80 after 14 days by micromethod; conditions: CNCTC My 235/80, 336 h
Mycobacterium kansasii [5] = test: Antimycobacterial activity against Mycobacterium kansasii 6509/96 clinical isolate after 14 days by micromethod; conditions: 6509/96, 336 h
[6] = test system: Mycobacterium tuberculosis; test: Antimycobacterial activity against Mycobacterium tuberculosis CNCTC My 331/88 after 21 days by micromethod; conditions: CNCTC My 331/88, 504 h
Mycobacterium kansasii [7] = test: Antimycobacterial activity against Mycobacterium kansasii CNCTC My 235/80 after 21 days by micromethod; conditions: CNCTC My 235/80, 504 h
Mycobacterium kansasii [8] = test: Antimycobacterial activity against Mycobacterium kansasii CNCTC My 235/80 after 7 days by micromethod; conditions: CNCTC My 235/80, 168 h
Mycobacterium kansasii [9] = test: Antimycobacterial activity against Mycobacterium kansasii 6509/96 clinical isolate after 21 days by micromethod; conditions: 6509/96, 504 h
Mycobacterium kansasii [10] = test: Antimycobacterial activity against Mycobacterium kansasii 6509/96 clinical isolate after 7 days by micromethod; conditions: 6509/96, 168 h
Escherichia coli = test: Antibacterial activity against Escherichia coli ATCC 8739 after 24 hrs by broth microdilution method
Klebsiella pneumoniae [11] = test: Antibacterial activity against Klebsiella pneumoniae HK11750/08 after 24 hrs by broth microdilution method
Klebsiella pneumoniae [12] = test: Antibacterial activity against extended spectrum beta-lactamase producing Klebsiella pneumoniae HK14368/08 after 24 hrs by broth microdilution method
Pseudomonas aeruginosa = test: Antibacterial activity against Pseudomonas aeruginosa ATCC 9027 after 24 hrs by broth microdilution method

Molecule | MIC (Mycobacterium avium [1]) | MIC [2] | MIC (Mycobacterium avium [3]) | MIC (Mycobacterium kansasii [4]) | MIC (Mycobacterium kansasii [5]) | MIC [6] | MIC (Mycobacterium kansasii [7]) | MIC (Mycobacterium kansasii [8]) | MIC (Mycobacterium kansasii [9]) | MIC (Mycobacterium kansasii [10]) | MIC (Escherichia coli) | MIC (Klebsiella pneumoniae [11]) | MIC (Klebsiella pneumoniae [12]) | MIC (Pseudomonas aeruginosa)
COc1ccc(CSc2nnc(-c3cc(N)cc([N+](=O)[O-])c3)o2)cc1 | 250 µM (≈ 89.6 µg/mL) | 125 µM (≈ 44.8 µg/mL) | 250 µM (≈ 89.6 µg/mL) | 250 µM (≈ 89.6 µg/mL) | 250 µM (≈ 89.6 µg/mL) | 125 µM (≈ 44.8 µg/mL) | 250 µM (≈ 89.6 µg/mL) | 250 µM (≈ 89.6 µg/mL) | 250 µM (≈ 89.6 µg/mL) | 250 µM (≈ 89.6 µg/mL) | – | – | – | –
GENTAMICIN | – | – | – | – | – | – | – | – | – | – | 0.26 µM | 0.26 µM | 0.26 µM | 1 µM
O=[N+]([O-])c1cc(-c2nnc(SCc3ccccc3)o2)cc(C(F)(F)F)c1 | > 250 µM | 1 µM (≈ 0.381 µg/mL) | > 250 µM | 4 µM (≈ 1.53 µg/mL) | 4 µM (≈ 1.53 µg/mL) | 1 µM (≈ 0.381 µg/mL) | 4 µM (≈ 1.53 µg/mL) | 2 µM (≈ 0.763 µg/mL) | 4 µM (≈ 1.53 µg/mL) | 2 µM (≈ 0.763 µg/mL) | – | – | – | –
